From patent US20110230481A2, “DERIVATIVES OF TETRABROMOBENZIMIDAZOLE, A PROCESS FOR THE PREPARATION THEREOF, A PHARMACEUTICAL COMPOSITION COMPRISING THE SAME, A METHOD OF USING THE SAME, A METHOD FOR MODULATING OR REGULATING SERINE/THREONINE KINASES, AND SERINE/THREONINE KINASES MODULATING AGENT” (SELVITA S.A., priority 2009, published 2011)
pIC50: −log10 of the molar value. Values after ≈ are worked out from the molar mass of the structure shown.

Legend:
[1] = system: human prostate carcinoma DU145 cells; test: Growth inhibition test (MTS); format: cell-based; conditions: 72 hours
Procedure: (§1) Two thousand cells of human prostate carcinoma DU145 were inoculated into each well of a 96-well microplate (manufactured by Corning Corp.), and using DMEM medium (culture medium) containing 10% fetal calf serum (FCS). The same day, a dimethyl sulfoxide (DMSO) solution of each test compound prepared in a concentration of 10 mmol/L was further diluted with DMSO to the desired concentrations (0.1, 0.5, 1, 2.5, 5 and 10 micromol/L), and the diluted solution was added to each well. The individual wells were further cultured in 5% carbon dioxide at 37° C. for 72 hours. After completion of the culture, 10 μl MTS (3-(4,5-Dimethyl-2-thiazolyl)-5-(carboxymethoxyphenyl)-2-(4-sulfophenyl)-2H-tetrazolium, innersalt assay (CellTiter96® AQueous One Solution Cell Proliferation Assay, Promega) was added to each well, and culturing was performed in 5% carbon dioxide at 37° C. for 2 hours. Using a microplate spectrophotometer (Synergy 2 multi-mode microplate reader (BioTek)), the absorbance of each well was measured at 490 nm. The value for cells not incorporated with a test compound was designated as 100%. By comparing these values with the absorbance difference obtained at the well in which each test compound was added, the cell viability (% viability) after treatment with the test compound was calculated.

[2] = biological target: PIM2 (Homo sapiens, UniProt Q9P1W9); test: Radiometric kinase assay (HotSpot); conditions: for Selectivity for Pim-2 over CK2α: ratio of IC50 values
Sequence of PIM2 (Q9P1W9 whole entry): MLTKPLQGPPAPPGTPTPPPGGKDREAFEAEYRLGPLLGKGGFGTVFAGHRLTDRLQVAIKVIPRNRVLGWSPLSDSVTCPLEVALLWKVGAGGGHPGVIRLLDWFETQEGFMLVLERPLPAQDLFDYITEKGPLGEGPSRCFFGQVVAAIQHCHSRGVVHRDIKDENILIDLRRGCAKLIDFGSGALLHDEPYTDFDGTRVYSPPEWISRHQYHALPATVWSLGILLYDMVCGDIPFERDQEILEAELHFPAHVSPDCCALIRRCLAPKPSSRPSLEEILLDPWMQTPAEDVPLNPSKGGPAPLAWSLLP
Procedure: (§2) Kinase assays were performed at Reaction Biology Corporation (www.reactionbiology.com, Malvern Pa.) using the “HotSpot” assay platform. This assay platform is based on a radiometric filtration binding assay and is considered as the “gold standard” to which non-radiometric methods are compared. In this assay format, the kinase reaction is performed in the presence of 32 P-γ-ATP or 33 P-γ-ATP, followed by binding of the final radioisotope labeled peptide product to filters after which unreacted phosphate is washed away and the levels of phosphorylated peptide are measured.

[3] = system: human myelomonocytic, biphenotypic leukemia MV4-11 cells; test: Growth inhibition test (MTS); format: cell-based; conditions: Homo sapiens, MV4-11; MV-4-11; 72 hours; read-out: Cytotoxicity in MTS assay (ED50)
Procedure: as §1, with “Ten” for “Two”, “myelomonocytic, biphenotypic leukemia MV4-11” for “prostate carcinoma DU145”, “Corp.)” for “Corp.), and”, “Iscove's MDM” for “DMEM”, “inner salt” for “innersalt”

[4] = biological target: PIM1 (Homo sapiens, UniProt P11309); test: Radiometric kinase assay (HotSpot); conditions: for Selectivity for Pim-1 over CK2α: ratio of IC50 values
Sequence of PIM1 (P11309 whole entry): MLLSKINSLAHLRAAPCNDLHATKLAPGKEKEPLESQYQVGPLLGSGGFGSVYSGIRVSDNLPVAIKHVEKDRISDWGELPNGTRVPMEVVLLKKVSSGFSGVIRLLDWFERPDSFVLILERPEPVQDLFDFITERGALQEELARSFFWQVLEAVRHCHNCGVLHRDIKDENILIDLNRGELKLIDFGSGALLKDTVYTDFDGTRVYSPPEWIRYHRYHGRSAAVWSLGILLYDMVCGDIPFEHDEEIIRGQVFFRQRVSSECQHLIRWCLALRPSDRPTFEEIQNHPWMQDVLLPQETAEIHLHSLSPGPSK
Procedure: as §2

[5] = system: human acute lymphocytic leukemia E6.1 Jurkat cells; test: Growth inhibition test (MTS); format: cell-based; conditions: Homo sapiens, 72 hours, read-out: Cytotoxicity in MTS assay (ED50)
Procedure: as §1, with “Twenty” for “Two”, “acute lumphocytic leukemia E6.1 Jurkat” for “prostate carcinoma DU145”, “Corp.)” for “Corp.), and”, “[…]” for “DMEM”, “inner salt” for “innersalt”

[6] = biological target: PIM3 (Homo sapiens, UniProt Q86V86); test: Radiometric kinase assay (HotSpot); conditions: for Selectivity for Pim-3 over CK2α: ratio of IC50 values
Procedure: as §2

[7] = system: human acute myeloid leukemia MOLM-13 cells; test: Growth inhibition test (MTS); format: cell-based; conditions: Homo sapiens, MOLM-13; MOLM13; 72 hours; read-out: Cytotoxicity in MTS assay (ED50)
Procedure: as §1, with “Ten” for “Two”, “acute myeloid leukemia MOLM-13” for “human prostate carcinoma DU145”, “Corp.)” for “Corp.), and”, “RPMI 8226” for “DMEM”, “inner salt” for “innersalt”

[8] = biological target: CK2α (Homo sapiens, UniProt P68400); test: Radiometric kinase assay (HotSpot)
Sequence of CK2α (P68400 whole entry): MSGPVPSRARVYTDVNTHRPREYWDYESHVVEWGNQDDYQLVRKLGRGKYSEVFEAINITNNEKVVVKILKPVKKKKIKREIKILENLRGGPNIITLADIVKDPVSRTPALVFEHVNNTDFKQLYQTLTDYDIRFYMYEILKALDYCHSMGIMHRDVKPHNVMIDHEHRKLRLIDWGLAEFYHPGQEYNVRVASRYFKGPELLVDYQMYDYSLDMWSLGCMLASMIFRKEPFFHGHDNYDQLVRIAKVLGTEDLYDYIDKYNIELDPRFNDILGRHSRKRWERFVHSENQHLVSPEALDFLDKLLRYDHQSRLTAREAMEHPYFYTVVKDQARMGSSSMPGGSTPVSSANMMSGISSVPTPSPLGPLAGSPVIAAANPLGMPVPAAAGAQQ
Procedure: as §2

[9] = system: human prostate adenocarcinoma PC3 cells; test: Growth inhibition test (MTS); format: cell-based; conditions: PC-3; 72 hours
Procedure: as §1, with “adenocarcinoma PC3” for “carcinoma DU145”, “F12K (Ham's F12:[…] 1:1)” for “DMEM”, “inner salt” for “innersalt”

[10] = Solubility in pH 7.4; conditions: phosphate buffer
Procedure: Compound stock solutions were prepared in DMSO to final concentrations of 1000 mM. For each compound studied, 12 solutions were prepared to cover concentrations from 0.001 to 1 mM. As a solvent 0.2 mM phosphate buffer (pH 7.4) was used. The final concentration of DMSO in the solutions was 1% (v/v). The solutions were left mixing for 24 hours at 37° C., 350 rpm and following incubation centrifuged for 5 minutes at 14500 rpm. The samples were then analyzed by RP HPLC using a C18 column and 0.2% solution of formic acid in water/acetonitrile mobile phase. […] The solubility was determined as the point as the point at which the concentration curve reaches plateau.

Row | Structure (SMILES) | Cytotoxicity in MTS assay (ED50) [1] [µM] | pIC50 [2] | Selectivity for Pim-2 over CK2α [2] | pIC50 [3] | pIC50 [4] | Selectivity for Pim-1 over CK2α [4] | pIC50 [5] | pIC50 [6] | Selectivity for Pim-3 over CK2α [6] | pIC50 [7] | pIC50 [8] | Cytotoxicity in MTS assay (ED50) [9] [µM] | solubility at 24 h [10] [µM]
1 | Brc1c(Br)c(Br)c2[nH]c(NCCCn3ccnc3)nc2c1Br [Compound 65, N-(3-(1H-imidazol-1-yl)propyl)-4,5,6,7-tetrabromo-1H-benzo[d]imidazol-2-amine] | 7.72 | 6.08 | 0.5 | < 5.00 | 7.06 | 5.1 | < 5.00 | 7.80 | 28.3 | 5.16 | 6.35 | >10 | 
2 | Brc1c(Br)c(Br)c2[nH]c(Nc3ccccc3)nc2c1Br [Compound 79, 4,5,6,7-tetrabromo-N-phenyl-1H-benzo[d]imidazol-2-amine] |  | < 4.70 |  | 5.36 | 5.82 | 1.3 | 5.04 | 5.53 | 0.7 | 5.22 | 5.71 |  | 
3 | NCCCCNc1nc2c(Br)c(Br)c(Br)c(Br)c2[nH]1 [Compound 61, N-(4-aminobutyl)-4,5,6,7-tetrabromo-1H-benzo[d]imidazol-2-amine] |  | 6.70 | 1.9 | 5.35 | 8.28 | 74.2 | 5.10 | 7.69 | 19.1 | 5.23 | 6.41 |  | 
4 | Brc1c(Br)c(Br)c2[nH]c(NCCCN3CCCCC3)nc2c1Br [Compound 59, 4,5,6,7-tetrabromo-N-(3-(piperidin-1-yl)propyl)-1H-benzo[d]imidazol-2-amine] |  | 5.83 | 0.6 | 5.55 | 7.06 | 9.7 | 5.36 | 6.72 | 4.5 | 5.45 | 6.07 |  | 
5 | NCC(O)CNc1nc2c(Br)c(Br)c(Br)c(Br)c2[nH]1 (centres unmarked) [Compound 90, 1-(4,5,6,7-tetrabromo-1H-benzo[d]imidazol-2-ylamino)-3-aminopropan-2-ol] |  | 7.04 | 1.2 | 5.67 | 8.04 | 12.0 | 5.24 | 8.12 | 14.4 | 5.16 | 6.96 |  | 72 (≈ 37.6 µg/mL)
6 | Nc1ccc(Nc2nc3c(Br)c(Br)c(Br)c(Br)c3[nH]2)cc1 [Compound 86, N1-(4,5,6,7-tetrabromo-1H-benzo[d]imidazol-2-yl)benzene-1,4-diamine] |  | 5.81 | 0.5 | 5.24 | 6.26 | 1.3 | 5.08 | 6.17 | 1.1 | 5.06 | 6.13 |  | 
